The text below walks through data of US20230226207A1, “Camptothecin Drug Having High-Stability Hydrophilic Connecting Unit And Conjugate Thereof” (SICHUAN BAILI PHARM CO., LTD, priority 2020, published 2023).

Experiment [1] deals with N87 (human gastric cancer cells). Kind of experiment: In vitro proliferation inhibition of N87 tumor cells (MTS). The following applies: 120 h, 5 days. Format: cell-based. How it is done: (§1) 1) Experimental Materials • Cells: from the cell bank of the Chinese Academy of Sciences; • Tumor cell culture medium: Gibco; • FBS: BIOWEST;
(§2) 2) Preparation of Medium • Growth medium (with 10% FBS, Penicillin/streptomycin (100 U/mL); • Detection medium (with 1% FBS, Penicillin/streptomycin (100 U/mL);
(§3) Turn on the UV lamp in the biological safety cabinet 30 minutes in advance, and ventilate for 3 minutes. Put the growth medium, detection medium, D-PBS and pancreatin into a 37° C. constant temperature water bath to preheat, then disinfect the surface with alcohol and put it in a biological safety cabinet. Select cells with a confluence of ˜80% (logarithmic growth phase), put them in a biological safety cabinet, aspirate the old medium, rinse with D-PBS, aspirate and discard, digest with trypsin for 2 to 3 minutes, and then add to growth Stop trypsin in the medium, and centrifuge at 500×g for 5 min. Aspirate the centrifugal supernatant, mix well with 4 mL detection medium, take 100 uL for counting (take out 50 uL cell fluid, add 50 μL 0.4% Trypan Blue Stain and mix well, and count after mixing). Plate the plate according to the number of cells set before, and plate 80 uL/well in a 96-well plate. Only add 80 uL detection medium to wells E11, F11, and G11, and add 200 uL DPBS to the edge holes to seal the edges. […]
(§4) Take out the MTS reagent after the test sample is exposed for 5 days. […] After the reaction, the 96-well plate was taken out, the OD490 nm absorbance value was detected in the microplate reader, and the data was recorded, sorted, and stored.

For experiment [2], the system named is SK-BR-3 (human breast adenocarcinoma cells). In words: In vitro proliferation inhibition of SK-BR-3 tumor cells (MTS). The following applies: 120 h, SK-BR-3 cells, 5 days. Format: cell-based. The method, then:
as §1, §2, §3, §4

Broadly, the IC50 is the point on the concentration scale where inhibition reaches its midpoint.

SMILES strings stand for the structures.

For the compound `CC[C@@]1(O)C(=O)OCc2c1cc1n(c2=O)Cc2c-1nc1cc(F)c(C)c3c1c2[C@@H](NC(=O)CO)CC3` [d1], the IC50 came to 13.3 nM in experiment [1] and 104 nM in experiment [2].

`CC[C@@]1(O)C(=O)OCc2c1cc1n(c2=O)Cc2c-1nc1cc(F)c(C)c3c1c2[C@@H](NC(=O)[C@H](C)O)CC3` [d3]: the figures for the IC50 in experiment [1] and in experiment [2] were 8.03 nM and 183 nM, respectively.

Regarding `CC[C@@]1(O)C(=O)OCc2c1cc1n(c2=O)Cc2c-1nc1cc(F)c(C)c3c1c2[C@@H](NC(=O)[C@H](O)C(F)(F)F)CC3` [d6], the IC50 in experiment [1] stood at 2.15 nM; in experiment [2], 239 nM.
